Data reported in US20240122178A1, “CAFFEIC ACID-BASED COMPOSITE MATERIAL AND PREPARATION METHOD THEREOF” (ZHEJIANG UNIVERSITY, priority 2021, published 2024).

Test: caffeic acid loading rate of carrier incubated with caffeic acid solution in ethanol
Format: physicochemical
Conditions: optimal loading conditions: molar ratio γ-cyclodextrin to caffeic acid 1:64, loading time 900 minutes, 40° C.
Description: In one embodiment, under the conditions of reaction temperature of 40° C. and reaction time of 900 minutes, the effects of different ratios of the cyclodextrin metal-organic framework material to caffeic acid (a molar ratio of γ-cyclodextrin in the cyclodextrin metal-organic framework material to caffeic acid is 1:4, 1:8, 1:32, 1:64 and 1:128, respectively) on the caffeic acid loading rate are compared. From the results, it can be seen that when the molar ratio of γ-cyclodextrin to caffeic acid in the cyclodextrin metal-organic framework composite is 1:4, the caffeic acid loading rate […]; with the increase of caffeic acid dosage, the caffeic acid loading rate gradually increases, and the increase of the loading rate is no longer obvious after increasing to 1:64. Therefore, the molar ratio of γ-cyclodextrin in the cyclodextrin metal-organic framework material to caffeic acid is selected from 1:4 to 1:128, further from 1:32 to 1:128, further from […], still further from 1: 60-70, and most preferably is 1:64.
In one embodiment, the effects of different incubating time (10, 20, 60, 180, 360, 720, 900, 2160 minutes) on the caffeic acid loading rate are compared under the conditions: the molar ratio of γ-cyclodextrin in the cyclodextrin metal-organic framework material to caffeic acid being 1:64 and the reaction temperature being 40° C. […]

For `OC[C@H]1O[C@@H]2O[C@H]3[C@H](O)[C@@H](O)[C@@H](O[C@H]4[C@H](O)[C@@H](O)[C@@H](O[C@H]5[C@H](O)[C@@H](O)[C@@H](O[C@H]6[C@H](O)[C@@H](O)[C@@H](O[C@H]7[C@H](O)[C@@H](O)[C@@H](O[C@H]8[C@H](O)[C@@H](O)[C@@H](O[C@H]9[C@H](O)[C@@H](O)[C@@H](O[C@H]1[C@H](O)[C@H]2O)O[C@@H]9CO)O[C@@H]8CO)O[C@@H]7CO)O[C@@H]6CO)O[C@@H]5CO)O[C@@H]4CO)O[C@@H]3CO` [γ-cyclodextrin], the “caffeic acid loading rate” value was 7.28%.
